# Where “and” joins values, the source holds several entries; their conditions need not be identical. Identical values can stand only once.
# Tests used:
# human μ-opioid receptor = human μ-opioid receptor (Homo sapiens, UniProt P35372); assay: Affinity to the human μ-opioid receptor ([3H]-naloxone displacement); settings: for μ (Naloxone), 1 μM, % inhibition: Table II, [3H]-naloxone; for inhibition at 1 µM: read-out: μ (Naloxone), 1 μM, % inhibition
# Experimental: The receptor affinity to the human μ-opioid receptor is determined in a homogeneous batch in microtiter plates. For this purpose, dilution series of the substances to be tested are incubated at room temperature for 90 minutes in a total volume of 250 μL with a receptor membrane preparation (15-40 μg of protein/250 μL of incubation batch) of CHO-K1 cells which express the human μ-opioid receptor (RB-HOM receptor membrane preparation supplied by NEN, Zaventem, Belgium) in the presence of 1 nmol/L of the radioactive ligand [^3H]-naloxone (NET 719, supplied by NEN, Zaventem, Belgium), and of 1 mg of WGA-SPA beads (wheat germ agglutinin SPA beads supplied by Amersham/Pharmacia, Freiburg, Germany). As incubation buffer, 50 mmol/L of tris HCl supplemented with 0.05% (weight/volume) of sodium azide and with 0.06% (weight/volume) of bovine serum albumin is used. For determination of the nonspecific binding, 25 μmol/L of naloxone are added. On completion of the ninety-minute incubation time, the microtiter plates are centrifuged for 20 minutes at 1000 g and the radioactivity is measured in a β-counter (Microbeta-Trilux, supplied by PerkinElmer Wallac, Freiburg, Germany).
# Based on the percentage displacement produced by different concentrations of the test substances, IC50 inhibitory concentrations are calculated which cause a 50 percent displacement of the radioactive ligand. As a result of recalculation using the Cheng-Prusoff relationship, the Ki values for the test substances can be obtained, as described in the publication of Y. Cheng, W. H. Prusoff, 1973, Biochem. Pharmacol., 22, pages 3099-3108.
# [1] = system: batrachotoxin (BTX) binding site of the sodium channel; assay: Affinity to the batrachotoxin (BTX) binding site of the sodium channel; settings: Table II, rat cerebrocortex synaptosomes, test concentration not given
# 5-HT transporter = biological target: T1, 5-HT transporter (Rattus norvegicus, UniProt P31652); assay: Inhibition of 5-HT uptake in rat brain synaptosomes; format: biochemical; settings: Table II, rat, 1 μM; for inhibition at 1 µM: read-out: Uptake 5-HT, % inhibition
# T1 construct: synaptosomes of rat brain areas are freshly isolated; from tissue; host or cells: rat brain synaptosomes (P2 fraction) from marrow and pons
# T1 sequence (P31652 whole entry): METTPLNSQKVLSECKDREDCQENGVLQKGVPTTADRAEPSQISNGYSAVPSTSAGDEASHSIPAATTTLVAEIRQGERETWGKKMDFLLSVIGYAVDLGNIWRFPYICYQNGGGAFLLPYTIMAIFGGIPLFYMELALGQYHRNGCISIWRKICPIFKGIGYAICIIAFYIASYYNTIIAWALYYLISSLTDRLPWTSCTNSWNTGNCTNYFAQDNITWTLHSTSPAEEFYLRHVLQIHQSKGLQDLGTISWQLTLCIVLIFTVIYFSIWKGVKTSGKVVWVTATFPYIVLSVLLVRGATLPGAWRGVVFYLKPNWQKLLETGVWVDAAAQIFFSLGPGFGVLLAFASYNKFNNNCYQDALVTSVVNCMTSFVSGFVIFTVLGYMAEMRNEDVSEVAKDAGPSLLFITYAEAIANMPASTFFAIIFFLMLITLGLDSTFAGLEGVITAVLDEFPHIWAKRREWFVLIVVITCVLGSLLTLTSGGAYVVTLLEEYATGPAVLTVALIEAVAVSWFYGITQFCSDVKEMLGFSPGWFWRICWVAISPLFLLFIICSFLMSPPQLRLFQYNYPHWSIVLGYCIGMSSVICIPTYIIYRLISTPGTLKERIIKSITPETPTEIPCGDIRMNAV
# male NMRI mice = assay: Analgesic test using the phenylquinone-induced writhing test on mice; format: in vivo; settings: 10 mg/kg intravenous
# Experimental: The analysis of analgesic activity is carried out using the phenylquinone-induced writhing assay in mice, modified as described in the article by I. C. Hendershot and J. Forsaith ((1959) in J. Pharmacol. Exp. Ther. 125, 237-240).
# For the present purpose, male NMRI mice are used having a weight of from 25 to 30 g. Groups of 10 animals per substance dose receive, 10 minutes after an intravenous dose of test substances, an intraperitoneal administration of 0.3 ml/mouse of a 0.02% strength aqueous solution of phenylquinone (phenylbenzoquinone, obtainable from Sigma, Deisenhofen; solution produced with the addition of 5% of ethanol and storage in a water bath at 45° C.). The animals are placed individually in observation cages. Using a pushbutton counter, the number of pain-induced stretching movements (so-called writhing reactions=straightening of the body accompanied by stretching of the rear extremities) was counted over a period of from 5 to 20 minutes following the administration of phenylquinone. The control is provided by animals receiving only physiological saline. All substances are tested using the standard dosage of 10 mg/kg.
# Chain of human μ-opioid receptor (P35372 whole entry): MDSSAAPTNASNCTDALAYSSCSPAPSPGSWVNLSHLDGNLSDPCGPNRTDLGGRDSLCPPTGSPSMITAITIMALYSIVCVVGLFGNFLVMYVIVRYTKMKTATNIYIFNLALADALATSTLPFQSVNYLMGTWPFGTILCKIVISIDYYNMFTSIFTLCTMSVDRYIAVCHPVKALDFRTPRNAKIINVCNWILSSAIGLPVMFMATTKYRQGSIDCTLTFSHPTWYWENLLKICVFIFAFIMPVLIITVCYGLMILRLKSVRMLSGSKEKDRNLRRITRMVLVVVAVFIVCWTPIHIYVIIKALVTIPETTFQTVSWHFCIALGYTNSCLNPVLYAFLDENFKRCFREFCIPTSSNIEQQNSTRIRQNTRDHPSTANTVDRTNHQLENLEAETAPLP
SMILES,"μ (Naloxone), 1 μM, % inhibition (human μ-opioid receptor)",BTX inhibition [1],"Uptake 5-HT, rat, 1 μM, % inhibition (5-HT transporter; hydrochloride)",BTX inhibition ([1]; hydrochloride),inhibition at 1 µM (5-HT transporter),inhibition at 1 µM (human μ-opioid receptor),% Inhibition of the writhing reaction (Dosage in mg/kg intravenous) (male NMRI mice)
"Cl.O=C1NC2(CCN(C(=O)c3ccc(Cl)cc3)CC2)N[C@H]1Cc1ccccc1 (racemic) [Example 10, 3-(S,R)-Benzyl-8-(4-chlorobenzoyl)-1,4,8-triazaspiro[4,5]decan-2-one hydrochloride]",94%,53,–,–,–,–,–
"Cl.O=C(c1ccc(Cl)cc1)N1CCC2(CC1)N[C@@H](Cc1ccccc1)C(=O)N2Cc1ccccc1 (racemic) [Example 29, 1,3-(S,R)-dibenzyl-8-(4-chlorobenzoyl)-1,4,8-triazaspiro[4,5]decan-2-one hydrochloride]",38%,–,80% and 45%,65 and 60,–,–,–
"CCC(CC)C(=O)N1CCC2(CC1)N[C@@H](Cc1ccccc1)C(=O)N2Cc1ccccc1.Cl [Example 25, 1,3-(S)-dibenzyl-8-(2-ethylbutyryl)-1,4,8-triazaspiro[4,5]decan-2-one hydrochloride]",–,47,–,–,66%,66%,42 (10) %
"Cl.O=C(COc1ccccc1)N1CCC2(CC1)N[C@@H](Cc1ccccc1)C(=O)N2Cc1ccccc1 [Example 57, 1,3-(S)-dibenzyl-8-(2-phenoxyacetyl)-1,4,8-triazaspiro[4,5]decan-2-one hydrochloride]",–,44,–,–,72%,60%,–
